# PMC8032624, “Prediction of dose-dependent in vivo acetylcholinesterase inhibition by profenofos in rats and humans using physiologically based kinetic (PBK) modeling-facilitated reverse dosimetry” (Archives of Toxicology, 2021)
# Biological target: AChE (Homo sapiens, UniProt P22303)
# Experiment: AChE inhibition by BCP
# Assay type: biochemical
# Sequence of AChE (P22303 32-614): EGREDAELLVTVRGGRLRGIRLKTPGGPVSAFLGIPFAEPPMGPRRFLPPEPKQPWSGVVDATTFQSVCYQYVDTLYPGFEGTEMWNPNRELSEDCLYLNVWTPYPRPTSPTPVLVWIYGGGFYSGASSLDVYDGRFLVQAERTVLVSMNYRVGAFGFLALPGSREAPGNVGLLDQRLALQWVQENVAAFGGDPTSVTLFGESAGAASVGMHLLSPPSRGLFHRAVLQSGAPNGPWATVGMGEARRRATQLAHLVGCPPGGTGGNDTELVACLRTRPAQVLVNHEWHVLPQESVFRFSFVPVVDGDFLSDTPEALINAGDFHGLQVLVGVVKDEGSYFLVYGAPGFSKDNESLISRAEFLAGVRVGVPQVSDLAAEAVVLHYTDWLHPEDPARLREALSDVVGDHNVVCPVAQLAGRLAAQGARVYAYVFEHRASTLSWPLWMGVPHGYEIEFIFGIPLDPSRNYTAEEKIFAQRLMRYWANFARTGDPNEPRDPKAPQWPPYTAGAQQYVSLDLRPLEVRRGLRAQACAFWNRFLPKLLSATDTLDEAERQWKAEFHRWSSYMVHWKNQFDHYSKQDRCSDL
smiles,measurement,value
"Oc1ccc(Br)cc1Cl [BCP, 4-bromo-2-chlorophenol]",AChE inhibition,not inhibit AChE
